{"source": "patent US8153821B2", "about": "“Compounds” (priority 2008, dated 2012)", "key": {"[1]": {"biological_target": "CYP3A4 (Homo sapiens, UniProt P08684)", "sequence (P08684 whole entry)": "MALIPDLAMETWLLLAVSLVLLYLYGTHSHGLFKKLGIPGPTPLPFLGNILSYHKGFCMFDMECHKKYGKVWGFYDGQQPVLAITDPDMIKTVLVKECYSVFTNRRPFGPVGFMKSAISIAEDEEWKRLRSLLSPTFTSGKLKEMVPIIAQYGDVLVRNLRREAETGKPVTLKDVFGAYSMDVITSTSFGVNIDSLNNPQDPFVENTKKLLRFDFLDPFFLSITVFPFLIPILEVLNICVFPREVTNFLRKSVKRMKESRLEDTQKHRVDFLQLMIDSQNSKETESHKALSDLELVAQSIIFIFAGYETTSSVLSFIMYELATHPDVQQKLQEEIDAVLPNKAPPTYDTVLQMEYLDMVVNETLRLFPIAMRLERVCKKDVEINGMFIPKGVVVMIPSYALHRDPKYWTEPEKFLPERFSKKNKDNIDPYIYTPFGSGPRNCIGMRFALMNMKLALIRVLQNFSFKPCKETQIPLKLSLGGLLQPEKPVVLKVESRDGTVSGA", "assay_type": "in vitro ADME"}, "[2]": {"biological_target": "CYP2D6 (Homo sapiens, UniProt P10635)", "sequence (P10635 whole entry)": "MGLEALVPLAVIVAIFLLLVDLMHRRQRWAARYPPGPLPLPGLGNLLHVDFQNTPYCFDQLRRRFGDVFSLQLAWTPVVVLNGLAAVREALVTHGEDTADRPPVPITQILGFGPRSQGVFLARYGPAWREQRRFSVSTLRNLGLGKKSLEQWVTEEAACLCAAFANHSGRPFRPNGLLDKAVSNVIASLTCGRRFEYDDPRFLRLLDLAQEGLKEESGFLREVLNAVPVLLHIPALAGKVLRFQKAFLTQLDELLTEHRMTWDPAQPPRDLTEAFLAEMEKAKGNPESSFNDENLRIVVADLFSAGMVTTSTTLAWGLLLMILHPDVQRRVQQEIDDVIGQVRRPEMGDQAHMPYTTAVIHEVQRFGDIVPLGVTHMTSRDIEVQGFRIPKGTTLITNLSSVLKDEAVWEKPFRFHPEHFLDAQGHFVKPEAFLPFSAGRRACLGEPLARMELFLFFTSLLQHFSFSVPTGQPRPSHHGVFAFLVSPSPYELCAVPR", "assay_type": "in vitro ADME"}, "[3]": {"biological_target": "α4β2 (Homo sapiens, UniProt P17787+P43681)", "sequence (P43681 29-627 limits assumed)": "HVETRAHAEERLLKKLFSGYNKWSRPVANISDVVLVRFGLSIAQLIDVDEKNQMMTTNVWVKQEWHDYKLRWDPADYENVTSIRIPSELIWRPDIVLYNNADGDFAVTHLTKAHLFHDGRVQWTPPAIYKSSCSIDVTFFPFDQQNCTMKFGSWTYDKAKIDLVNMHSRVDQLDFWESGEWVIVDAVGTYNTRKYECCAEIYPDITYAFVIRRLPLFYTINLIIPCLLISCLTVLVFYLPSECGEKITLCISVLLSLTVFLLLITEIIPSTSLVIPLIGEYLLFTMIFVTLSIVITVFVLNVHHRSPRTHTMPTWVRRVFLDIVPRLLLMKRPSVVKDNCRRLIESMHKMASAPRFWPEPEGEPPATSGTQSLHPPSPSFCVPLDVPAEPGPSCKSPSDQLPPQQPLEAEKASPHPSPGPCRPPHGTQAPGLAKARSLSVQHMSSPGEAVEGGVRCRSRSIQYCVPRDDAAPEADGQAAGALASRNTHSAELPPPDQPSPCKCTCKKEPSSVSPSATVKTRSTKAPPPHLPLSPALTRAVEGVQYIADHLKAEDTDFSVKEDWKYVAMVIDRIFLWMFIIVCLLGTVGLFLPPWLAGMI", "sequence (P17787 26-502)": "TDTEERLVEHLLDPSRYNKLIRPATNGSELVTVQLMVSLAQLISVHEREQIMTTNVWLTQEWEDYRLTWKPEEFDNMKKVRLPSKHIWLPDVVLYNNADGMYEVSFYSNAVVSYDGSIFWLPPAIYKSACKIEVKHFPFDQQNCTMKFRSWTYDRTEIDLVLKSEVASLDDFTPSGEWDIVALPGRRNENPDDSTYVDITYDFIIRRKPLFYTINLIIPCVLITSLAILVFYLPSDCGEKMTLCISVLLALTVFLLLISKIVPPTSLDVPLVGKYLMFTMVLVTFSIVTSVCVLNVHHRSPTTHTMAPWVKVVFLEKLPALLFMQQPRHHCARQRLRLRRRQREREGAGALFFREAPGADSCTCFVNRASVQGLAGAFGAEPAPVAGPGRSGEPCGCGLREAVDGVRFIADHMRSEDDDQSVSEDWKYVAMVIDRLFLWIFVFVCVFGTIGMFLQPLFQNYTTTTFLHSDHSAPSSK", "assay": "In vitro assay at α4β2, response compared to acetylcholine"}, "[4]": {"assay_type": "physicochemical", "source_text": "One aspect of the present invention relates to novel salt forms of (R)-3-((E)-2-(pyrrolidin-3-yl)vinyl)-5-(tetrahydropyran-4-yloxy)pyridine. […] However, the free base may react with both inorganic and organic acids to make acid addition salts that have physical properties that are advantageous for the preparation of pharmaceutical compositions such as crystallinity, water solubility, and stability toward chemical degradation."}}}
{"compound": "C(=C\\[C@H]1CCNC1)/c1cncc(OC2CCOCC2)c1", "note": "[Compound A, (R)-3-((E)-2-(pyrrolidin-3-yl)vinyl)-5-(tetrahydropyran-4-yloxy)pyridine]", "values": [{"measurement": "time-dependent inhibition of CYP3A4", "setting": "[1]", "result": "no evidence of time-dependent inhibition"}, {"measurement": "time-dependent inhibition of CYP2D6", "setting": "[2]", "result": "no evidence of time-dependent inhibition"}, {"measurement": "response compared to acetylcholine", "setting": "[3]", "result": "twice as great"}, {"measurement": "water solubility", "setting": "[4]", "result": "limited water solubility"}]}
